# Like-named read-outs stand apart in the source and are kept apart here.
# Experiments:
# SNB-19 = assay: SRB 48 h growth assay, CNS SNB-19; format: cell-based, human; details: Homo sapiens, SNB-19, CNS, read-out: Log10 LC50 (converted)
# OVCAR-3 = assay: SRB 48 h growth assay, Ovarian OVCAR-3; format: cell-based, human; details: Homo sapiens, OVCAR-3, Ovarian
# HOP-62 = assay: SRB 48 h growth assay, Non-small Cell Lung HOP-62; format: cell-based, human; details: Homo sapiens, HOP-62, Non-small Cell Lung
# HS578T = assay: SRB 48 h growth assay, Breast HS578T; format: cell-based, human
# HCT-116 = assay: SRB 48 h growth assay, Colon HCT-116; format: cell-based, human; details: Homo sapiens, HCT-116, Colon
# KM12 = assay: SRB 48 h growth assay, Colon KM12; format: cell-based, human; details: Homo sapiens
# RXF393 = assay: SRB 48 h growth assay, Renal RXF393; format: cell-based, human; details: Homo sapiens
# 786-0 = assay: SRB 48 h growth assay, Renal 786-0; format: cell-based, human; details: Homo sapiens, 786-0, Renal
# HOP-92 = assay: SRB 48 h growth assay, Non-small Cell Lung HOP-92; format: cell-based, human; details: Homo sapiens, HOP-92, Non-small Cell Lung
# NCI-H23 = assay: SRB 48 h growth assay, Non-small Cell Lung NCI-H23; format: cell-based, human; details: Homo sapiens, read-out: Log10 LC50 (converted)
# OVCAR-8 = assay: SRB 48 h growth assay, Ovarian OVCAR-8; format: cell-based, human; details: Homo sapiens, OVCAR-8, Ovarian
# NCI/ADR-RES = assay: SRB 48 h growth assay, Ovarian NCI/ADR-RES; format: cell-based, human; details: Homo sapiens
# [1] = in vitro anticancer activity, non-small cell lung panel; format: cell-based; details: Homo sapiens; nine non-small cell lung cancer cell lines, exposure at least 48 h; read-out: GI50, range over panel
# [2] = system: seven ovarian cancer cell lines (IGROV1, OVCAR-3, OVCAR-4, OVCAR-5, OVCAR-8, NCI/ADR-RES and SK-OV-3); assay: in vitro anticancer activity, ovarian panel; format: cell-based; details: Homo sapiens, exposure at least 48 h, read-out: GI50, range over panel
# OVCAR-4 = assay: SRB 48 h growth assay, Ovarian OVCAR-4; format: cell-based, human; details: Homo sapiens, OVCAR-4, Ovarian
# CCRF-CEM = assay: SRB 48 h growth assay, Leukemia CCRF-CEM; format: cell-based, human; details: Homo sapiens
# [3] = system: six breast cancer cell line (MCF-7, MDA-MB-231/ATCC, HS 578T, TD-47D, MDA-MB-468 and BT-549); assay: in vitro anticancer activity, breast panel; format: cell-based; details: Homo sapiens; six breast cancer cell lines, exposure at least 48 h; read-out: GI50, range over panel
# UACC-257 = assay: SRB 48 h growth assay, Melanoma UACC-257; format: cell-based, human; details: Homo sapiens, UACC-257, Melanoma
# [4] = system: two prostate cancer cell line (PC-3, DU-145); assay: in vitro anticancer activity, prostate panel; format: cell-based; details: Homo sapiens; two prostate cancer cell lines, exposure at least 48 h; read-out: GI50, range over panel
# [5] = read-out: Growth Inhibition GI50
# [6] = read-out: Log10 GI50 (converted)
# [7] = read-out: Log10 LC50 (converted)
structure (smiles),measurement,setting,value
"C#Cc1ccc(-n2c(/C=C/c3ccc(Cl)c(F)c3)nc3ncccc3c2=O)cc1 [4g, (E)-2-(4-chloro-3-fluorostyryl)-3-(4-ethynylphenyl)pyrido[2,3-d]pyrimidin-4(3H)-one]",CC50,SNB-19,> 100000 nM
same,GI50,OVCAR-3; [5],300 nM
same,GI50,OVCAR-3; [6],302 nM
same,GI50,HOP-62; [5],580 nM
same,GI50,HOP-62; [6],589 nM
same,Log10 TGI50,HS578T,>−4.00
same,GI50,"HS578T; Homo sapiens, Hs-578T, read-out: Growth Inhibition GI50",410 nM
same,GI50,"HS578T; Homo sapiens, Hs-578T, read-out: Log10 GI50 (converted)",417 nM
same,CC50,"HS578T; Homo sapiens, Hs-578T, read-out: Log10 LC50 (converted)",> 100000 nM
same,GI50,HCT-116; [5],330 nM
same,GI50,HCT-116; [6],331 nM
same,GI50,KM12; [5],340 nM
same,GI50,KM12; [6],347 nM
same,GI50,"RXF393; RXF 393, read-out: Growth Inhibition GI50",280 nM
same,GI50,"RXF393; RXF 393, read-out: Log10 GI50 (converted)",282 nM
same,CC50,"RXF393; RXF 393, read-out: Log10 LC50 (converted)",> 100000 nM
same,GI50,786-0; [5],360 nM
same,GI50,786-0; [6],372 nM
same,GI50,HOP-92; [5],200 nM
same,GI50,HOP-92; [6],204 nM
same,LC50,NCI-H23,> 100000 nM
same,GI50,OVCAR-8; [5],350 nM
same,GI50,OVCAR-8; [6],355 nM
same,CC50,OVCAR-8; [7],> 100000 nM
same,GI50,NCI/ADR-RES; [5],410 nM
same,GI50,NCI/ADR-RES; [6],417 nM
same,CC50,NCI/ADR-RES; [7],> 100000 nM
same,GI50,[1],200 to 580 nM
same,GI50,[2],300 to 480 nM
same,GI50,OVCAR-4; [5],480 nM
same,GI50,OVCAR-4; [6],479 nM
same,CC50,"CCRF-CEM; CCKF-CEM, read-out: Log10 LC50 (converted)",> 100000 nM
same,GI50,CCRF-CEM; [5],290 nM
same,GI50,CCRF-CEM; [6],288 nM
same,GI50,[3],240 to 410 nM
same,GI50,UACC-257; [5],540 nM
same,GI50,UACC-257; [6],537 nM
same,GI50,[4],340 nM

# — patent US9783537B2, “3-(4-ethylnylphenyl) pyridopyrimidinone compounds and process for preparation thereof useful as potential anticancer agents” (Council of Scientific & Industrial Research, priority 2013, dated 2017)
